# Data as given in US20230096766A1, “AMINO ACID HAVING FUNCTIONAL GROUP CAPABLE OF INTERMOLECULAR HYDROGEN BONDING, PEPTIDE COMPOUND CONTAINING SAME AND METHOD FOR PRODUCTION THEREOF” (Chugai Seiyaku Kabushiki Kaisha, priority 2018, published 2023).
# *1 amine or outer side, *2 acyl side, *3 side chain or, on linkers, in order; H or OH if unused. Where a SMILES comes first, the peptide text is derived from it. Bridges are numbered along the chain shown (N, C = ends). [ ]: non-standard residue; d: D form. The star is where a group is joined. ξ: configuration not given here. Phe(3-OMe,4-CONHMe) = CNC(=O)c1ccc(C[C@H](N)C(=O)O)cc1OC; NMeAla(4-thiazolyl) = CN[C@@H](Cc1cscn1)C(=O)O; Phe(4-COOH) = N[C@@H](Cc1ccc(C(=O)O)cc1)C(=O)O; NMePhe(3-Cl) = CN[C@@H](Cc1cccc(Cl)c1)C(=O)O; X12 = O=C([C@H](CCCC(O)C(F)(F)F)N[*:1])[*:2]; Propyl(2,2-Me2,3-OH) = CC(C)(CO)C*; NMeF = CN[C@@H](Cc1ccccc1)C(=O)O; NMeGABA = CN(CCCC(=O)[*:2])[*:1]; NMeI = CC[C@H](C)[C@H](NC)C(=O)O; CH2CH(OH)CF3 = OC(C*)C(F)(F)F; NMeL = CN[C@@H](CC(C)C)C(=O)O; Thr(3ξ) = CC(O)[C@H](N)C(=O)O; Propyl(2R-OH) = C[C@@H](O)C*; Butyl(3S-OH) = C[C@H](O)CC*; NMeV = CN[C@H](C(=O)O)C(C)C; NMeAbu = CC[C@H](NC)C(=O)O; NMeA = CN[C@@H](C)C(=O)O; Piperidide = C1CCN(*)CC1; NBuGly = CCCCNCC(=O)O; Propyl(3-OH) = OCCC*; ξS = NC(CO)C(=O)O; N(OH)Me = CN(O)*; Sar = CNCC(=O)O; tBu = CC(C)(C)*
# Assay: in vitro
# Conditions: human, Caco-2, Caco-2 (cm/sec)
row,Compound,Papp [×10⁻⁶ cm/s]
1,CCCCN1CC(=O)N(C)[C@@H](CC(C)C)C(=O)N[C@@H](COC(C)(C)C)C(=O)N(C)[C@@H]([C@@H](C)CC)C(=O)N(C)[C@@H](CC(C)C)C(=O)N[C@H](C(=O)N2CCCCC2)CC(=O)N[C@H](C)C(=O)N(C)[C@@H](Cc2ccccc2)C(=O)N[C@@H](Cc2ccc(C(=O)N(C)O)cc2)C(=O)N(C)[C@@H](CC(C)C)C(=O)N[C@@H]([C@@H](C)O)C1=O [AP250] ([dA][NMeF][Phe(4-COOH)](N(OH)Me)[NMeL]T[NBuGly][NMeL]S(tBu)[NMeI][NMeL]D-Piperidide; lactam N-11),0.12
2,CC(C)C[C@@H]1NC(=O)[C@H](Cc2ccccc2)N(C)C(=O)[C@H](C)NC(=O)C[C@@H](C(=O)N2CCCCC2)NC(=O)[C@H](Cc2ccccc2)N(C)C(=O)[C@H](Cc2ccccc2)N(C)C(=O)[C@H](COC(C)(C)C)NC(=O)[C@H](CC(C)C)N(C)C(=O)CN(C)C(=O)[C@H]([C@@H](C)O)NC(=O)[C@H](CC(C)C)N(C)C1=O [pd217] (A[NMeF]L[NMeL]T[Sar][NMeL]S(tBu)[NMeF][NMeF]D-Piperidide; lactam N-11),1.1
3,CC(C)C[C@@H]1NC(=O)[C@H](Cc2ccccc2)N(C)C(=O)[C@H]2CCCN2C(=O)C[C@@H](C(=O)N2CCCCC2)NC(=O)[C@H](Cc2ccccc2)N(C)C(=O)[C@H](Cc2ccccc2)N(C)C(=O)[C@H](COC(C)(C)C)NC(=O)[C@H](CC(C)C)N(C)C(=O)CN(C)C(=O)[C@H]([C@@H](C)O)NC(=O)[C@H](CC(C)C)N(C)C1=O [pd206] ([dP][NMeF]L[NMeL]T[Sar][NMeL]S(tBu)[NMeF][NMeF]D-Piperidide; lactam N-11),1.8
4,CCCCN1CC(=O)N(C)[C@@H](CC(C)C)C(=O)N[C@@H](COC[C@@H](C)O)C(=O)N(C)[C@@H](Cc2cccc(Cl)c2)C(=O)N(C)[C@@H](C(C)C)C(=O)N[C@H](C(=O)N2CCCCC2)CC(=O)N[C@H](C(C)C)C(=O)N(C)[C@@H](Cc2ccccc2)C(=O)N[C@@H](CC(C)C)C(=O)N(C)[C@@H](CC(C)C)C(=O)N[C@@H]([C@@H](C)O)C1=O [AP80] ([dV][NMeF]L[NMeL]T[NBuGly][NMeL]S(Propyl(2R-OH))[NMePhe(3-Cl)][NMeV]D-Piperidide; lactam N-11),0.36
5,CC(C)C[C@H]1C(=O)N[C@@H](Cc2ccc(O)cc2)C(=O)N(C)CC(=O)N(C)[C@@H](C)C(=O)N(C)[C@@H](CC(C)C)C(=O)N[C@@H](COC(C)(C)C)C(=O)N(C)[C@@H](C(C)C)C(=O)N[C@H](C(=O)N2CCCCC2)CC(=O)N(C)CC(=O)N(C)[C@@H](Cc2ccccc2)C(=O)N[C@@H](C(C)C)C(=O)N1C [pd115] ([Sar][NMeF]V[NMeL]Y[Sar][NMeA][NMeL]S(tBu)[NMeV]D-Piperidide; lactam N-11),0.22
6,CC(C)C[C@@H]1NC(=O)[C@H](Cc2cccc(Cl)c2)N(C)C(=O)[C@H](Cc2ccccc2)N(C)C(=O)[C@H](COCCCO)NC(=O)[C@H](CC(C)C)N(C)C(=O)CCCN(C)C(=O)C[C@@H](C(=O)N2CCCCC2)NC(=O)[C@H](CC(C)C)N(C)C(=O)[C@H](CC(C)C)N(C)C(=O)[C@H]([C@@H](C)O)NC(=O)[C@H](CC(C)C)N(C)C1=O [AP91] ([NMeGABA][NMeL]S(Propyl(3-OH))[NMeF][NMePhe(3-Cl)]L[NMeL]T[NMeL][NMeL]D-Piperidide; lactam N-11),0.14
7,CC(C)C[C@H]1C(=O)N[C@@H]([C@@H](C)O)C(=O)N(C)[C@@H](CC(C)C)C(=O)N(C)[C@@H](CC(C)C)C(=O)N[C@H](C(=O)N2CCCCC2)CC(=O)N(C)CCCC(=O)N(C)[C@@H](C(C)C)C(=O)NC(COCC[C@H](C)O)C(=O)N(C)[C@@H](Cc2ccccc2)C(=O)N(C)[C@@H](Cc2cccc(Cl)c2)C(=O)N[C@@H](COC(C)(C)C)C(=O)N1C (stereo partly drawn) [AP101] ([NMeGABA][NMeV][ξS](Butyl(3S-OH))[NMeF][NMePhe(3-Cl)]S(tBu)[NMeL]T[NMeL][NMeL]D-Piperidide; lactam N-11),0.59
8,"CCCCN1CC(=O)N(C)[C@@H](Cc2ccccc2)C(=O)N(C)[C@@H](CC(C)C)C(=O)N[C@@H](COCC(C)(C)CO)C(=O)N(C)[C@@H](CC(C)C)C(=O)N[C@H](C(=O)N2CCCCC2)CC(=O)N(C)CC(=O)N(C)[C@@H](Cc2ccccc2)C(=O)N[C@@H](C(C)C)C(=O)N(C)[C@@H](CC(C)C)C(=O)N[C@@H]([C@@H](C)O)C1=O [AP124] ([Sar][NMeF]V[NMeL]T[NBuGly][NMeF][NMeL]S(Propyl(2,2-Me2,3-OH))[NMeL]D-Piperidide; lactam N-11)",1.6
9,"CNC(=O)c1ccc(C[C@@H]2NC(=O)[C@H](CC(C)C)N(C)C(=O)[C@H](CC(C)C)N(C)C(=O)[C@H](CC(C)C)NC(=O)[C@H](CC(C)C)N(C)C(=O)C[C@@H](C(=O)N3CCCCC3)NC(=O)[C@H](CC(C)C)N(C)C(=O)CN(C)C(=O)[C@H](C(C)O)NC(=O)[C@H](C(C)C)N(C)C(=O)[C@H](CC(C)C)N(C)C2=O)cc1OC (stereo partly drawn) [AP32] ([NMeL]L[NMeL][NMeL][Phe(3-OMe,4-CONHMe)][NMeL][NMeV][Thr(3ξ)][Sar][NMeL]D-Piperidide; lactam N-11)",1.3

# Same assay, conditions: human, Caco-2, Caco-2 (cm/sec) Papp
row,Compound,Papp [×10⁻⁶ cm/s]
1,CC(C)C[C@@H]1NC(=O)[C@H](CC(C)C)N(C)C(=O)C[C@@H](C(=O)N2CCCCC2)NC(=O)[C@H](CC(C)C)N(C)C(=O)CN(C)C(=O)[C@H]([C@@H](C)O)NC(=O)[C@H](Cc2cscn2)N(C)C(=O)[C@H](Cc2ccccc2)N(C)C(=O)[C@H](Cc2ccccc2)NC(=O)[C@H](Cc2ccccc2)N(C)C(=O)[C@H](CC(C)C)N(C)C1=O [pd228] ([NMeL]L[NMeL][NMeF]F[NMeF][NMeAla(4-thiazolyl)]T[Sar][NMeL]D-Piperidide; lactam N-11),0.58

# Same assay, conditions: human, Caco-2, Caco-2 (membrane permeability)
row,Compound,Papp [×10⁻⁶ cm/s]
1,CCCCN1CC(=O)N(C)[C@@H](Cc2ccccc2)C(=O)N(C)[C@@H](CC(C)C)C(=O)N[C@@H](COCC(O)C(F)(F)F)C(=O)N(C)[C@@H](CC(C)C)C(=O)N[C@H](C(=O)N2CCCCC2)CC(=O)N(C)CC(=O)N(C)[C@@H](Cc2ccccc2)C(=O)N[C@@H]([C@@H](C)CC)C(=O)N(C)[C@@H](CC(C)C)C(=O)N[C@@H]([C@@H](C)O)C1=O (stereo partly drawn) [Compound C07] ([Sar][NMeF]I[NMeL]T[NBuGly][NMeF][NMeL]S(CH2CH(OH)CF3)[NMeL]D-Piperidide; lactam N-11),0.45
2,CC[C@H](C)[C@@H]1NC(=O)[C@H](CC(C)C)N(C)C(=O)CCCN(C)C(=O)C[C@@H](C(=O)N2CCCCC2)NC(=O)[C@H](CC(C)C)N(C)C(=O)[C@H](CC(C)C)N(C)C(=O)[C@H]([C@@H](C)O)NC(=O)[C@H](CC(C)C)N(C)C(=O)[C@H](CCCC(O)C(F)(F)F)NC(=O)[C@H](Cc2ccccc2)N(C)C(=O)[C@H](Cc2ccccc2)N(C)C1=O (stereo partly drawn) [Compound D03] ([NMeGABA][NMeL]I[NMeF][NMeF][X12][NMeL]T[NMeL][NMeL]D-Piperidide; lactam N-11),0.33
3,CC[C@H]1C(=O)N(C)[C@@H](Cc2ccccc2)C(=O)N[C@@H](CC(C)C)C(=O)N(C)[C@@H](Cc2ccccc2)C(=O)N(C)[C@@H](C(C)C)C(=O)N[C@@H](COCC(O)C(F)(F)F)C(=O)N(C)CC(=O)N(C)[C@@H](CC(C)C)C(=O)N[C@H](C(=O)N2CCCCC2)CC(=O)N(C)[C@@H](C)C(=O)N[C@@H](CC(C)C)C(=O)N1C (stereo partly drawn) [Compound C14] ([NMeA]L[NMeAbu][NMeF]L[NMeF][NMeV]S(CH2CH(OH)CF3)[Sar][NMeL]D-Piperidide; lactam N-11),2
